These are literature values, as cited in patent US20230285554A1, “COMBINED MEDICATION FOR TREATING SOFT TISSUE SARCOMA” (CHIA TAI TIANQING PHARMACEUTICAL GROUP CO., LTD., priority 2020, published 2023).

The data set relates to STS. The note with it: first-line chemotherapy.

`O=P1(NCCCl)OCCCN1CCCl` (centres unmarked) [ifosfamide]: the efficacy in words result was “best efficacy”.

On to `COc1cccc2c1C(=O)c1c(O)c3c(c(O)c1C2=O)C[C@@](O)(C(=O)CO)C[C@@H]3O[C@H]1C[C@H](N)[C@H](O)[C@H](C)O1` [adriamycin], for which the efficacy in words result is recorded as “best efficacy”.
